Like-named read-outs stand apart in the source and are kept apart here. Where a SMILES comes first, the peptide text is derived from it. The star is where a group is joined. X1 = O=C(CCCCc1cn([C@@H]2O[C@H](CO)[C@H](O)[C@H](O)[C@H]2O)nn1)*; NODAGA = O=C(O)CN1CCN(CC(=O)O)CCN(C(CCC(=O)*)C(=O)O)CC1; GABA = NCCCC(=O)O
Key:
[1] = protein binding in human serum; format: in vitro ADME; conditions: human, serum
Method: (§1) The ^68Ge/^68Ga generator, devices for analytical HPLC, semipreparative HPLC, mass spectrometry, radio-thin layer chromatography, gamma counter and animal models for biodistribution and imaging studies including the image reconstruction procedures were the same as described before.[22] Stability assays in PBS and human blood serum, protein binding as well as determination of log D values followed established protocols.[25] Binding affinities (IC50) of selected ligands were determined in an isolated receptor-based assay according to a previously published procedure with minor modifications.[22] Dilutions of nonradioactive complexes were made with PBS + 0.1% BSA (10^–5–10^–12 M). Preparation of [^125I]I-Asialoorosomucoid which serves as the radioactive standard ligand has been published recently.[21]

log D determination = format: physicochemical
Method: as §1

[2] = biodistribution in healthy BALB/c mice; conditions: mouse, in vivo
Method: as §1
(§2) Animal experiments were performed in accordance with the Austrian animal experiments law (BGBl. I Nr. 114/2012) and the institution’s animal welfare standards as approved by the Austrian Federal Ministry of Education, Science and Research (BMBWF, 2022–0.311.708). Imaging experiments were conducted at Werner Siemens Imaging Center (Tübingen, Germany) according to the German animal welfare act as approved by the local authorities (R5/19 G, R09/21 G).
(§3) Figure 2 Biodistribution data (% ID/g) of ^68Ga-labeled NODAGA-GalNAc-NonaLysan, NODAGA-NonaLysan, NODAGA-HexaLysan, and NODAGA-TriLysan in healthy BALB/c mice at 10, 30, and 60 min p.i. (100 pmol, 1 MBq).

[3] = tested on: healthy female BALB/c mice; assay: biodistribution in healthy BALB/c mice; conditions: mouse, in vivo
Method: as §1, §2, §3

[4] = complex stability in human blood serum; format: in vitro ADME
Method: as §1

complex stability in PBS = format: physicochemical
Method: as §1

[5] = 2 min, read-out: protein binding (%) (converted)
[6] = 30 min, read-out: protein binding (%) (converted)

Structure (SMILES): NC(=O)CNC(=O)CNC(=O)[C@H](CCCCNC(=O)CCCCc1cn([C@@H]2O[C@H](CO)[C@H](O)[C@H](O)[C@H]2O)nn1)NC(=O)CNC(=O)CNC(=O)[C@H](CCCCNC(=O)CCCCc1cn([C@@H]2O[C@H](CO)[C@H](O)[C@H](O)[C@H]2O)nn1)NC(=O)CNC(=O)CNC(=O)[C@H](CCCCNC(=O)CCCCc1cn([C@@H]2O[C@H](CO)[C@H](O)[C@H](O)[C@H]2O)nn1)NC(=O)CNC(=O)CNC(=O)[C@H](CCCCNC(=O)CCCCc1cn([C@@H]2O[C@H](CO)[C@H](O)[C@H](O)[C@H]2O)nn1)NC(=O)CNC(=O)CNC(=O)[C@H](CCCCNC(=O)CCCCc1cn([C@@H]2O[C@H](CO)[C@H](O)[C@H](O)[C@H]2O)nn1)NC(=O)CNC(=O)CNC(=O)[C@H](CCCCNC(=O)CCCCc1cn([C@@H]2O[C@H](CO)[C@H](O)[C@H](O)[C@H]2O)nn1)NC(=O)CCCNC(=O)CCC(C(=O)O)N1CCN(CC(=O)O)CCN(CC(=O)O)CC1 (stereo partly drawn) [[^68Ga]Ga-NODAGA-HexaLysan, metal not drawn] ({NODAGA-GABA}-K(X1)GGK(X1)GGK(X1)GGK(X1)GGK(X1)GGK(X1)GG-NH2)
- fraction unbound [1, 5]: 0.824
- fraction unbound [1, 6]: 0.782
- fraction unbound ([1]; protein binding (%)): 0.785
- logD (log D determination): -4.34
- tissue uptake at 10 min ([2]; Blood uptake): 2.1 ± 0.04 %ID/g
- tissue uptake at 0.5 h ([2]; Blood uptake): 0.6 ± 0.1 %ID/g
- tissue uptake at 1 h ([2]; Blood uptake): 1.1 ± 0.4 %ID/g
- tissue uptake at 10 min ([2]; Femur uptake): 0.5 ± 0.1 %ID/g
- tissue uptake at 0.5 h ([2]; Femur uptake): 0.3 ± 0.03 %ID/g
- tissue uptake at 10 min ([2]; Heart uptake): 0.9 ± 0.1 %ID/g
- tissue uptake at 0.5 h ([2]; Heart uptake): 0.4 ± 0.1 %ID/g
- tissue uptake at 1 h ([2]; Heart uptake): 0.3 ± 0.02 %ID/g
- tissue uptake at 10 min ([2]; Intestine uptake): 1.2 ± 0.3 %ID/g
- tissue uptake at 0.5 h ([2]; Intestine uptake): 4 ± 0.3 %ID/g
- tissue uptake at 1 h ([2]; Intestine uptake): 5.9 ± 1.7 %ID/g
- tissue uptake at 10 min ([2]; Kidneys uptake): 4.8 ± 0.3 %ID/g
- tissue uptake at 0.5 h ([2]; Kidneys uptake): 1.9 ± 0.2 %ID/g
- tissue uptake at 1 h ([2]; Kidneys uptake): 1.3 ± 0.3 %ID/g
- tissue uptake at 10 min ([2]; Liver uptake): 54.8 ± 3 %ID/g
- tissue uptake at 0.5 h ([2]; Liver uptake): 55.5 ± 7.4 %ID/g
- tissue uptake at 1 h ([2]; Liver uptake): 45.9 ± 11.8 %ID/g
- tissue uptake at 10 min ([2]; Lung uptake): 1.6 ± 0.2 %ID/g
- tissue uptake at 0.5 h ([2]; Lung uptake): 0.8 ± 0.1 %ID/g
- tissue uptake at 1 h ([2]; Lung uptake): 0.6 ± 0.2 %ID/g
- tissue uptake at 10 min ([2]; Muscle uptake): 0.9 ± 1.2 %ID/g
- tissue uptake at 0.5 h ([2]; Muscle uptake): 0.6 ± 0.03 %ID/g
- tissue uptake at 1 h ([2]; Muscle uptake): 0.4 ± 0.04 %ID/g
- tissue uptake at 10 min ([2]; Pancreas uptake): 0.9 ± 0.1 %ID/g
- tissue uptake at 0.5 h ([2]; Pancreas uptake): 0.7 ± 0.1 %ID/g
- tissue uptake at 1 h ([2]; Pancreas uptake): 0.5 ± 0.1 %ID/g
- tissue uptake at 10 min ([2]; Spleen uptake): 0.5 ± 0.1 %ID/g
- tissue uptake at 0.5 h ([2]; Spleen uptake): 0.2 ± 0.1 %ID/g
- tissue uptake at 1 h ([2]; Spleen uptake): 0.2 ± 0.02 %ID/g
- tissue uptake at 10 min ([2]; Stomach uptake): 1.3 ± 0.3 %ID/g
- tissue uptake at 0.5 h ([2]; Stomach uptake): 1.2 ± 0.3 %ID/g
- tissue uptake at 1 h ([2]; Stomach uptake): 0.4 ± 0.1 %ID/g
- Liver uptake ([3]; 0.5 h): 55.7 ± 7.4 % ID/g
- Femur uptake ([3]; 1 h): 0 % ID/g

Structure (SMILES): NC(=O)CNC(=O)CNC(=O)[C@H](CCCCNC(=O)CCCCc1cn([C@@H]2O[C@H](CO)[C@H](O)[C@H](O)[C@H]2O)nn1)NC(=O)CNC(=O)CNC(=O)[C@H](CCCCNC(=O)CCCCc1cn([C@@H]2O[C@H](CO)[C@H](O)[C@H](O)[C@H]2O)nn1)NC(=O)CNC(=O)CNC(=O)[C@H](CCCCNC(=O)CCCCc1cn([C@@H]2O[C@H](CO)[C@H](O)[C@H](O)[C@H]2O)nn1)NC(=O)CCCNC(=O)CCC(C(=O)O)N1CCN(CC(=O)O)CCN(CC(=O)O)CC1 (stereo partly drawn) [[^68Ga]Ga-NODAGA-TriLysan, metal not drawn] ({NODAGA-GABA}-K(X1)GGK(X1)GGK(X1)GG-NH2)
- complex stability in serum (% intact ligand) ([4]; 2 min): 99.9%
- complex stability in serum (% intact ligand) ([4]; 30 min): 99.9%
- complex stability in serum (% intact ligand) ([4]; 60 min): 99.9%
- complex stability in serum (% intact ligand) ([4]; 120 min): 99.9%
- complex stability in PBS (% intact ligand) (complex stability in PBS; 2 min): 99.7%
- complex stability in PBS (% intact ligand) (complex stability in PBS; 30 min): 99.8%
- complex stability in PBS (% intact ligand) (complex stability in PBS; 60 min): 99.8%
- complex stability in PBS (% intact ligand) (complex stability in PBS; 120 min): 99.8%
- fraction unbound [1, 5]: 0.924
- fraction unbound [1, 6]: 0.945
- fraction unbound ([1]; 60 min, read-out: protein binding (%) (converted)): 0.908
- fraction unbound ([1]; 120 min, read-out: protein binding (%) (converted)): 0.864
- logD (log D determination): -3.52
- tissue uptake at 10 min ([2]; 10 min p.i., read-out: Blood uptake): 3.6 ± 0.1 %ID/g
- tissue uptake at 10 min ([2]; 10 min p.i., read-out: Femur uptake): 0.9 ± 0.3 %ID/g
- tissue uptake at 10 min ([2]; 10 min p.i., read-out: Heart uptake): 1.4 ± 0.01 %ID/g
- tissue uptake at 10 min ([2]; 10 min p.i., read-out: Intestine uptake): 1.2 ± 0.3 %ID/g
- tissue uptake at 10 min ([2]; 10 min p.i., read-out: Kidneys uptake): 7.6 ± 1.4 %ID/g
- tissue uptake at 10 min ([2]; 10 min p.i., read-out: Liver uptake): 9.5 ± 1.6 %ID/g
- tissue uptake at 10 min ([2]; 10 min p.i., read-out: Lung uptake): 2.6 ± 0.2 %ID/g
- tissue uptake at 10 min ([2]; 10 min p.i., read-out: Muscle uptake): 0.9 ± 0.1 %ID/g
- tissue uptake at 10 min ([2]; 10 min p.i., read-out: Pancreas uptake): 1 ± 0.04 %ID/g
- tissue uptake at 10 min ([2]; 10 min p.i., read-out: Spleen uptake): 1 ± 0.01 %ID/g
- tissue uptake at 10 min ([2]; 10 min p.i., read-out: Stomach uptake): 1.6 ± 0.2 %ID/g
- tissue uptake at 0.5 h ([2]; 30 min p.i., read-out: Blood uptake): 1.6 ± 0.2 %ID/g
- tissue uptake at 0.5 h ([2]; 30 min p.i., read-out: Femur uptake): 0.4 ± 0.02 %ID/g
- tissue uptake at 0.5 h ([2]; 30 min p.i., read-out: Heart uptake): 0.6 ± 0.04 %ID/g
- tissue uptake at 0.5 h ([2]; 30 min p.i., read-out: Intestine uptake): 1.1 ± 0.02 %ID/g
- tissue uptake at 0.5 h ([2]; 30 min p.i., read-out: Kidneys uptake): 5 ± 0.02 %ID/g
- tissue uptake at 0.5 h ([2]; 30 min p.i., read-out: Liver uptake): 9.4 ± 2 %ID/g
- tissue uptake at 0.5 h ([2]; 30 min p.i., read-out: Lung uptake): 1.2 ± 0.1 %ID/g
- tissue uptake at 0.5 h ([2]; 30 min p.i., read-out: Muscle uptake): 0.4 ± 0.04 %ID/g
- tissue uptake at 0.5 h ([2]; 30 min p.i., read-out: Pancreas uptake): 0.4 %ID/g
- tissue uptake at 0.5 h ([2]; 30 min p.i., read-out: Spleen uptake): 0.4 ± 0.02 %ID/g
- tissue uptake at 0.5 h ([2]; 30 min p.i., read-out: Stomach uptake): 0.9 ± 0.1 %ID/g
- tissue uptake at 1 h ([2]; 60 min p.i., read-out: Blood uptake): 0.3 ± 0.01 %ID/g
- tissue uptake at 1 h ([2]; 60 min p.i., read-out: Femur uptake): 0.1 ± 0.01 %ID/g
- tissue uptake at 1 h ([2]; 60 min p.i., read-out: Heart uptake): 0.2 ± 0.01 %ID/g
- tissue uptake at 1 h ([2]; 60 min p.i., read-out: Intestine uptake): 1 ± 0.3 %ID/g
- tissue uptake at 1 h ([2]; 60 min p.i., read-out: Kidneys uptake): 2 ± 0.3 %ID/g
- tissue uptake at 1 h ([2]; 60 min p.i., read-out: Liver uptake): 9.2 ± 0.3 %ID/g
- tissue uptake at 1 h ([2]; 60 min p.i., read-out: Lung uptake): 0.5 ± 0.1 %ID/g
- tissue uptake at 1 h ([2]; 60 min p.i., read-out: Muscle uptake): 0.1 %ID/g
- tissue uptake at 1 h ([2]; 60 min p.i., read-out: Pancreas uptake): 0.2 ± 0.01 %ID/g
- tissue uptake at 1 h ([2]; 60 min p.i., read-out: Spleen uptake): 0.2 %ID/g
- tissue uptake at 1 h ([2]; 60 min p.i., read-out: Stomach uptake): 0.3 ± 0.01 %ID/g
